From ChEMBL document CHEMBL1201862, “PubChem BioAssay data set” (2004) come the findings set out here.

Assay [1] is described as follows: Dd2 malaria parasite growth inhibition potency – SYBR Green, dry powder samples, dose response (AID 1159566).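 Also: potency for growth inhibition with lower SYBR green DNA signal.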 Format: functional, cell-based.
A short description of assay [2]: P. falciparum Dd2 growth inhibitors, dose response, SYBR Green, cherry-picked samples (AID 1159567). Format: functional, cell-based.
Assay [3] in a line: growth inhibition of yeast DHODH-expressing 3D7 parasites – SYBR Green, dry powder samples, dose response (AID 1159570).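 Also: parasite growth measured after 72 hours of compound exposure.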 Format: functional, cell-based.
Assay [4] can be described thus: growth inhibition of PfATP4-mutant resistant parasites – NITD609-resistant line, SYBR Green, dry powder, dose response (AID 1159571).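 Also: parasites synchronized at ring stage by sorbitol before testing.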 Format: functional, cell-based.
For assay [5], the target named is T1, Bcl-2-related protein A1 (Mus musculus, UniProt Q07440).
T1 sequence (Q07440 whole entry): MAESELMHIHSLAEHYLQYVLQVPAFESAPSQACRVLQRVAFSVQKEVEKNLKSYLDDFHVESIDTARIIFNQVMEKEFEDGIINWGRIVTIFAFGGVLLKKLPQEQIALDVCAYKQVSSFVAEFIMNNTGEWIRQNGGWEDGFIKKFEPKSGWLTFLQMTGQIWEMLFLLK
Kind of assay: small-molecule antagonists of Bfl-1/BH3 interaction – biochemical, TR-FRET, mouse Bfl-1, confirmation (AID 621).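 Also: TR-FRET binding of GST-Bfl-1 to FITC-labelled Bid peptide via terbium antibody.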 On the technique in general: Time-resolved FRET reads energy transfer from a long-lived donor to a nearby acceptor.

Assay [6] has as its target Glyceraldehyde-3-phosphate dehydrogenase (Homo sapiens, UniProt P04406).
In assay [7] the target is T1, Bcl-2-related protein A1. The assay is described as follows: Bfl-1 binding inhibitors, SAR follow-up, biochemical, fluorescence polarization (AID 1070). (In general: Polarisation of emitted light reports the rotation of a fluorescent probe.)
Assay [8] in a line: Luminescence-based cell-based high throughput dose response assay to identify activators of the DAF-12 from the parasite S. stercoralis (ssDAF-12). The assay is classed as functional.
The nature of assay [9]: viability of HCT116 lacking mutant beta-catenin – cell-based, human colon tumor, dose response (AID 1045).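 Also: HCT116 colon tumor cells with beta catenin knocked out; cells exposed to compound for 60 hours.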 Format: functional.
Assay [10] deals with T2, Oxysterols receptor LXR-beta (Homo sapiens, UniProt P55055).
T2 sequence (P55055 whole entry): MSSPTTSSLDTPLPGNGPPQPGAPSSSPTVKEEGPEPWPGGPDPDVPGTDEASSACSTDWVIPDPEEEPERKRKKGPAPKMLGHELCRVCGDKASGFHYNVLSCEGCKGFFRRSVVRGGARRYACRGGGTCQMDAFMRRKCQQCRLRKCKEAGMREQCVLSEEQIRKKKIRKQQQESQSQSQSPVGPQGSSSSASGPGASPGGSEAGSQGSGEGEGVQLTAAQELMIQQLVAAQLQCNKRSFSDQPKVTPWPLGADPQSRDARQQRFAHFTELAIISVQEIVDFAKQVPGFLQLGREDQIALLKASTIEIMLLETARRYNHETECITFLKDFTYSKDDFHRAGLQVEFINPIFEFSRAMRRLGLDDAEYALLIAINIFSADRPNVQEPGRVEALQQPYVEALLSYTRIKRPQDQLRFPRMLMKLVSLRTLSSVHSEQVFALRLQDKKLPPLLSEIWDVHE
Kind of assay: LXR agonists, Gal4 luciferase reporter, dose response, counter-screen for ssDAF-12 agonist project, cell-based, luminescence, HEK293, S. stercoralis campaign (AID 720737). The assay is classed as functional. To be noted: read-out: IC50 (the source's name). (Reporter assays use an easily measured gene product as a stand-in for the process of interest.)

The nature of assay [11]: viability of PTEN-deleted HCT116 cells – cell-based, HCT116 PTEN knockout, dose response (AID 1047).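 Also: HCT116 colon tumor cells with PTEN knocked out; cells exposed to compound for 60 hours before readout; potency for loss of cell viability measured by luminescence.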 The assay is classed as functional.
For assay [12], the target named is T3, Tyrosine-protein phosphatase non-receptor type 7 (Homo sapiens, UniProt P35236).
T3 sequence (P35236 whole entry): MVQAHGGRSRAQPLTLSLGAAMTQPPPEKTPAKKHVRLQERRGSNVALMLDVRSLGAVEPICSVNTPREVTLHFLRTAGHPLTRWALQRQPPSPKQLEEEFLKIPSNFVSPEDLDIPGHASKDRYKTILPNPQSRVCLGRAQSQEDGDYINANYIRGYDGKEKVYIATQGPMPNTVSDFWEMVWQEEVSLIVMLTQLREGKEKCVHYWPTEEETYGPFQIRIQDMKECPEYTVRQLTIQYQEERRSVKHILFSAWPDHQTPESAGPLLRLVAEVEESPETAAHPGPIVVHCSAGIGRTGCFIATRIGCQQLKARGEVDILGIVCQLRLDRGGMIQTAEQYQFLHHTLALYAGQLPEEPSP
Kind of assay: HePTP tyrosine phosphatase activity blockers – biochemical, absorbance, leukemia target, primary screen (AID 521). The assay is classed as functional.

Assay [13] has as its target Paired box protein Pax-8 (Homo sapiens, UniProt Q06710). Kind of assay: PAX8 transcriptional activity inhibition in RMG-I – RMG-I cells, luciferase, cherry-pick, dose response (AID 687027).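 Also: luciferase reporter driven by Pax8 target thyroperoxidase promoter measured by SteadyGlo luminescence.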 The assay is classed as functional, cell-based.
The nature of assay [14]: OVCAR8 cell viability loss – plate reader, dry powder samples, PAX8 project, dose response (AID 743197). To be noted: OVCAR-8. The assay is classed as functional, cell-based.
The nature of assay [15]: OVCAR-3 cell viability loss – plate reader, dry powder samples, PAX8 inhibitor project, dose response (AID 743044). Format: functional, cell-based.
The target of assay [16] is T4, Protein Tat (Human immunodeficiency virus type 1 group M subtype B (isolate HXB2)(HIV-1), UniProt P04608).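 Also: tat binding to TAR RNA read out by fluorescence polarization.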
T4 sequence (P04608 whole entry): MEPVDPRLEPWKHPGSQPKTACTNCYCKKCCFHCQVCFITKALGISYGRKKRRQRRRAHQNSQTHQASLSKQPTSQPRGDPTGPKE
Format: functional.

Assay [17] addresses Mitogen-activated protein kinase 10 (Homo sapiens, UniProt P53779). Kind of assay: Dose response biochemical screening assay for inhibitors of c-Jun N-Terminal Kinase 3 (JNK3). [Related pubchem assays: 746 ].

The source made the active and inactive calls.

Chain of Glyceraldehyde-3-phosphate dehydrogenase (P04406 whole entry): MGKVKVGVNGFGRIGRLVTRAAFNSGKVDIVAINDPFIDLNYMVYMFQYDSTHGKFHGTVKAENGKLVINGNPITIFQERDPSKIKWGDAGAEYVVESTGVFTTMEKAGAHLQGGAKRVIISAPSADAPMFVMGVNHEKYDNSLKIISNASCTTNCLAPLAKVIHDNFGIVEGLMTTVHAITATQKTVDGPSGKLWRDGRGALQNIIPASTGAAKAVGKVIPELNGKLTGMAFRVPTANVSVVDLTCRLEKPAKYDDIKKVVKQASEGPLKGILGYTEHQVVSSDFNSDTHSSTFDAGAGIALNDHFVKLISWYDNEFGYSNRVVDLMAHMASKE
Chain of Paired box protein Pax-8 (Q06710 whole entry): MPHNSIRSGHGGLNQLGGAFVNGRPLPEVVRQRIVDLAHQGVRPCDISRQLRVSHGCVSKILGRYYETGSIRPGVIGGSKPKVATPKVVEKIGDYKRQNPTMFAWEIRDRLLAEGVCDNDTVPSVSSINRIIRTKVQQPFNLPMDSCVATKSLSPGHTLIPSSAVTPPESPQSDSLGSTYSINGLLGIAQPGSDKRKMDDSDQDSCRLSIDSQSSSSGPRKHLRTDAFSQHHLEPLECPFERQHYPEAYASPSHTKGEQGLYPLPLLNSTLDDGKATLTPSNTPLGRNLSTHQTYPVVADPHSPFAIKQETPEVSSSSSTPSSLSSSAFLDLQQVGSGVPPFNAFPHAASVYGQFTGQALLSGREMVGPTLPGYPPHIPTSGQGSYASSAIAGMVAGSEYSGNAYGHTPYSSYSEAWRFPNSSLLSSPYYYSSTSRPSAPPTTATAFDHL
Chain of Mitogen-activated protein kinase 10 (P53779 whole entry): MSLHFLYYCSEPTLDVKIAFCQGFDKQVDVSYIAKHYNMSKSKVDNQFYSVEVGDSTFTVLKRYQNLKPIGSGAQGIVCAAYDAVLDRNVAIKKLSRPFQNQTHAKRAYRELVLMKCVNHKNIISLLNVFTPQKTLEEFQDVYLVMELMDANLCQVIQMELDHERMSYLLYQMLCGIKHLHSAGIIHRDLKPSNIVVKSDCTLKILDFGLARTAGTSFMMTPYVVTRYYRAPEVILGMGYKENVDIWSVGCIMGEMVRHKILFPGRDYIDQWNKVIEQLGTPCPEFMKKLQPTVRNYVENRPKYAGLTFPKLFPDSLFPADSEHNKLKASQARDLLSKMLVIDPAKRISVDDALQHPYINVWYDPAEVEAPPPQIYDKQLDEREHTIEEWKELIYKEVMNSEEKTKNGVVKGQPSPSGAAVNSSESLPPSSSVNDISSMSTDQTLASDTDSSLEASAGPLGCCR

Regarding `C[C@@H]1CN([C@H](C)CO)C(=O)c2cc(NC(=O)Nc3ccc(C(F)(F)F)cc3)ccc2O[C@H]1CN(C)C(=O)Nc1cccc2ccccc12`, the AC50 was 1.99 µM (active) in assay [1], 1.68 µM (active) in [2], 1.43 µM (active) in assay [3] and 2 µM (active) in assay [4].
Consider `O=C1C(Cl)=C(N2CCN(c3ccccc3Cl)CC2)C(=O)N1c1ccc(Cl)c(Cl)c1`, for which the IC50 in assay [5], in [6] and in assay [7] was > 100 µM (not active) in each case.
For `Cc1ccc2nc(-c3ccc(NC(=O)COC(=O)c4ccc(Br)o4)cc3)sc2c1`, the IC50 in assay [8] was > 67.5 µM (inactive). Also, the figures for the EC50 in [9], in [10] and in assay [11] were 79.7 µM (active), > 67.5 µM (inactive) and 37.3 µM (active), respectively.
Regarding `CN(Cc1nc(-c2cccnc2)no1)S(=O)(=O)c1ccc(Br)cc1`, the IC50 in [12] is > 100 µM (not active).
With `Cc1ccc(S(=O)(=O)Nc2ccc3c(c2)C(=O)N([C@H](C)CO)C[C@@H](C)[C@H](CN(C)Cc2ccc(Cl)c(Cl)c2)OCCCC[C@H](C)O3)cc1`, the concentration at half-maximal activity (AC50) was 6.2 µM (active) in [13], 37.8 µM (active) in assay [14] and 25.4 µM (active) in assay [15].
Regarding `NC(=O)c1c(NC(=O)Cc2cccs2)sc2c1CCC2`, the IC50 in [16] is > 100 µM (active); in assay [17], 28.3 µM (not active).
For the compound `Cc1n[nH]c(C)c1S(=O)(=O)N1CCCC(C(=O)Nc2ccc3c(c2)OCCO3)C1` (centres undefined), in assay [12], the IC50 was > 100 µM (not active).
On to `O=P(O)(CN1CCCCCC1)CN1CCCCCC1`, for which the IC50 in assay [16] was > 100 µM (active).

In general, AC50 refers to the concentration at which the activity in the assay is half-maximal. The term IC50 denotes the concentration that inhibits the measured activity by half.
